Results published in ChEMBL document CHEMBL1156615, “Nakijiquinones G-I, new sesquiterpenoid quinones from marine sponge” (Bioorg Med Chem, 2008).
Converted amounts (≈) assume the structure as drawn. The source made the active and inactive calls. The rule behind the calls is not given here.

Tests used:
L1210 = assay: Cytotoxicity against mouse L1210 cells; assay type: functional, cell-based
Micrococcus luteus = assay: Antibacterial activity against Micrococcus luteus; assay type: functional
Bacillus subtilis = assay: Antibacterial activity against Bacillus subtilis; assay type: functional
KB = assay: Cytotoxicity against human KB cells; assay type: functional, cell-based
Candida albicans = assay: Antifungal activity against Candida albicans; assay type: functional
P388 = assay: Cytotoxicity against mouse P388 cells; assay type: functional, cell-based
Cryptococcus neoformans = assay: Antifungal activity against Cryptococcus neoformans; assay type: functional
[1] = target: Receptor tyrosine-protein kinase erbB-2 (Homo sapiens) (UniProt P04626); assay: Inhibition of HER2
Receptor tyrosine-protein kinase erbB-2 (Homo sapiens), sequence (P04626 whole entry): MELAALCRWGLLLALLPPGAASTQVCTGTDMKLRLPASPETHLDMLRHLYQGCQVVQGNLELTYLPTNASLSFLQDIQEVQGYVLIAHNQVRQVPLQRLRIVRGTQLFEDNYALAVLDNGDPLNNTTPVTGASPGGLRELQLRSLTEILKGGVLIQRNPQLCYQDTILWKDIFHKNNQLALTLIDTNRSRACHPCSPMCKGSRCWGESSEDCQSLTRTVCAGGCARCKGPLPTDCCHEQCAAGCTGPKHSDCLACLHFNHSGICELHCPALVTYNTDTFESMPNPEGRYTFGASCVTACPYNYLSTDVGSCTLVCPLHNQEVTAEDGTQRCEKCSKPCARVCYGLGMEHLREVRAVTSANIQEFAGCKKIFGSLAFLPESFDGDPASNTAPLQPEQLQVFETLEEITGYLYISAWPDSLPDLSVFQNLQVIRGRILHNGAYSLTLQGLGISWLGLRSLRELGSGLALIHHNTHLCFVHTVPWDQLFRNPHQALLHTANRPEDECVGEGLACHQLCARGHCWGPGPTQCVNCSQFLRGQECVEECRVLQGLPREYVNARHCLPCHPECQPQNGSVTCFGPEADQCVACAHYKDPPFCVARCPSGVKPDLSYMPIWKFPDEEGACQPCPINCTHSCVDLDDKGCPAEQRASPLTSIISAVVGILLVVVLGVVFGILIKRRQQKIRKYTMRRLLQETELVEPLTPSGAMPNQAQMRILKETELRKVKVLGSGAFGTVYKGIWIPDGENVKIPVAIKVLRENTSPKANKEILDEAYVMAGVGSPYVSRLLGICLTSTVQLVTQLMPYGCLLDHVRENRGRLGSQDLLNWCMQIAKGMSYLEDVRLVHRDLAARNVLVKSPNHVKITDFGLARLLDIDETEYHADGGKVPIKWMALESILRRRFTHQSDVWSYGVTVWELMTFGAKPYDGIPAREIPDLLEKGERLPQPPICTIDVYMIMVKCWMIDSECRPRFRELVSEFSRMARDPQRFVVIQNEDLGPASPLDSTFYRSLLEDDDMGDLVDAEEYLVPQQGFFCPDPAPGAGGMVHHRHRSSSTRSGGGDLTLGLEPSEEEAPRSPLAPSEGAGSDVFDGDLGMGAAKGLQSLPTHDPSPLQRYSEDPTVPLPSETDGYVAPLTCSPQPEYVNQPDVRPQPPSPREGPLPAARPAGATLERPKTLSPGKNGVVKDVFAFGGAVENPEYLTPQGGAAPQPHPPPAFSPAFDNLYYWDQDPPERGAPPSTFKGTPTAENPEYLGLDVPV

Escherichia coli = assay: Antibacterial activity against Escherichia coli; assay type: functional
Staphylococcus aureus = assay: Antibacterial activity against Staphylococcus aureus; assay type: functional
Aspergillus niger = assay: Antifungal activity against Aspergillus niger; assay type: functional

| Structure (SMILES) | IC50 (L1210) | MIC (Micrococcus luteus) | MIC (Bacillus subtilis) | IC50 (KB) | MIC (Candida albicans) | IC50 (P388) | MIC (Cryptococcus neoformans) | Activity [1] | MIC (Escherichia coli) | MIC (Staphylococcus aureus) | MIC (Aspergillus niger) |
| --- | --- | --- | --- | --- | --- | --- | --- | --- | --- | --- | --- |
| CC1=CCC[C@H]2[C@](C)(CC3=C(O)C(=O)C=C(NCCC[S+](C)[O-])C3=O)[C@@H](C)CC[C@]12C (stereo partly drawn) [NAKIJIQUINONE I] | 2.4 µg/mL (≈ 5.36 µM) | 33.3 µg/mL (≈ 74.4 µM) | > 33.3 µg/mL | 5.6 µg/mL (≈ 12.5 µM) | > 33.3 µg/mL | 2.9 µg/mL (≈ 6.48 µM) | > 33.3 µg/mL | Active | > 33.3 µg/mL | > 33.3 µg/mL | > 33.3 µg/mL |
| CC1=CCC[C@H]2[C@](C)(CC3=C(O)C(=O)C=C(NCCc4cnc[nH]4)C3=O)[C@@H](C)CC[C@]12C [NAKIJIQUINONES G] | 2.9 µg/mL (≈ 6.63 µM) | 33.3 µg/mL (≈ 76.1 µM) | 33.3 µg/mL (≈ 76.1 µM) | 4.8 µg/mL (≈ 11 µM) | > 33.3 µg/mL | 3.2 µg/mL (≈ 7.31 µM) | > 33.3 µg/mL | Active | > 33.3 µg/mL | 33.3 µg/mL (≈ 76.1 µM) | > 33.3 µg/mL |
| CC1=CCC[C@H]2[C@](C)(CC3=C(O)C(=O)C=C(NCCCCNC(=N)N)C3=O)[C@@H](C)CC[C@]12C [NAKIJIQUINONES H] | 8.5 µg/mL (≈ 18.6 µM) | 16.7 µg/mL (≈ 36.6 µM) | 33.3 µg/mL (≈ 72.9 µM) | > 10 µg/mL | 8.35 µg/mL (≈ 18.3 µM) | 2.4 µg/mL (≈ 5.26 µM) | 8.35 µg/mL (≈ 18.3 µM) | Active | > 33.3 µg/mL | 33.3 µg/mL (≈ 72.9 µM) | 16.7 µg/mL (≈ 36.6 µM) |
